In patent US10765747B2 (SWEDISH ORPHAN BIOVITRUM AB (PUBL), priority 2004, dated 2020):
Like-named read-outs stand apart in the source and are kept apart here. Blank lines part the entries; values can stand above or below the compound they belong to.

Experiments:
[1] = target: T1, IL-1ra (Homo sapiens, UniProt P18510); conditions: for reduction in the rate of aggregation of IL-1ra: 10 mM accessory molecule
Procedure: The rate of aggregation was determined as the slope of the linear region of the saturation curve calculated using the SoftMax Pro program (Molecular Devices).

[2] = pH 6.5 and 39° C., estimated from literature-reported pKas
[3] = target: T2, anion binding site on IL-1ra (Homo sapiens, UniProt P18510); experiment: biochemical; conditions: K^dL, Kd of citrate (y-intercept of K^dLapp plot)
Excerpt: (§2) After spinning, about half of the solution passed through the filter as filtrate, while the remaining solution remained above the filter as retentate.
(§3) K^dL is the Kd for ligand binding to protein and is equal to the concentration of P (free protein) times the concentration of L (free ligand), divided by the concentration of PL (protein bound to ligand). K^dX is the Kd for competitive anion binding to protein and is equal to the concentration of P (free protein) times the concentration of X (free competing anion), divided by concentration of PX (protein bound to competing anion).
(§4) By replacing the (PX) term with (Xfree)(Pfree)/K^dX, which is derived from the equilibrium equation shown above, the expression for K^dLapp can be reduced to: K^dLapp=K^dL[1+(Xfree/K^dX)] Thus, if K^dLapp is plotted versus Xfree, the y-intercept will be equal to K^dL and the slope will be equal to K^dL/K^dX. Rearranging, K^dX will be equal to the y-intercept divided by the slope.
(§5) The concentration of free protein is calculated to be the total concentration of protein in the sample minus the concentration of bound protein (which is equal to the concentration of bound ligand). […] In other words, Xfree=Xtotal−ΔXbound as Xtotal is increased.

[4] = target: T1, IL-1ra; experiment: Citrate binding to IL-1ra (spin column filtration, HPLC, Scatchard plot)
[5] = target: T1, IL-1ra; experiment: Derivatization of IL-1ra with methyl acetyl phosphate (MAP) in various buffers, reverse-phase HPLC; set-up: additional N-terminal methionine (not a tag proper); host or cells: E. coli (stated for anakinra in the background); conditions: for rate of derivatization of IL-1ra with MAP compared with phosphate buffer: pH 6.3, 6.5, 6.7; for rate of derivatization of IL-1ra with MAP in 20 mM compared with 10 mM buffer: pH 6.5
Procedure: IL-1ra was derivatized with MAP in the presence of citrate or phosphate as follows. […] The reaction was incubated at 37° C. and 25 μl aliquots were taken using an HPLC autosampler at 0, 45, 90, 135, 180, 225, and 270 minutes. Each aliquot was analyzed by reverse-phase HPLC using an Agilent 110 HPLC equipped with a Jupiter 5u C4 300A reverse-phase HPLC column (4.6×250 mm, Phenomenex, Torrance, Calif.), an on-line UV detector and a temperature-controlled 100-well sample tray set at 37° C. The flow rate was set at 1 ml/min and the column was maintained at a temperature of 50° C. The column was pre-equilibrated for 15 min (flow rate 1 ml/min) with 65% buffer A (0.1% trifluoroacetic acid (TFA) in water) and 35% buffer B (90% acetonitrile, 0.1% TFA in water). After loading, the analytes were eluted using a gradient ramping from 35% to 50% buffer B (90% acetonitrile, 0.1% TFA in water) over 25 minutes.
(§1) The reaction was incubated at 37° C. and 25 μl aliquots were taken using an HPLC autosampler at 0, 45, 90, 135, 180, 225, and 270 minutes. Each aliquot was analyzed by reverse-phase HPLC as described above for derivatization in the presence of citrate.
as §1, with “citrate. […] Four weakly resolved peaks were identified in this experiment and are indicated on FIG. 15.” for “citrate.”
In particular, each chromatogram from FIG. 16A was deconvoluted using PeakFit™ (Systat Software Inc.). The area under the each of the deconvoluted peaks (peaks 1-4) at each time point (0, 45, 90, 135, 180, 225, and 270 minutes) was then integrated. Deconvoluted peaks 1-4 are labeled on FIG. 16B and the integrated area under each one is shown below. […] The integrated area of deconvoluted peak 4 at time points 0, 45, 90, 135, 180 minutes was then plotted against the incubation time of the reaction that produced that peak. The resulting line has a slope of 68.931 hour^−1.
The rate of derivatization of IL-1ra with MAP was then calculated for various experiments in the presence of various buffers and at various pHs, according to the methods discussed above.

[6] = target: T2, anion binding site on IL-1ra; conditions: for Kd: read-out: K^dX, Kd for competing anion binding to the anion binding site of IL-1ra, competition with 10 mM citrate, 1 mM IL-1ra, pH 6.5, 70 mM NaCl
Excerpt: as §2, §3, §4, §5

[7] = pH 6.5 and 39° C.; cited from earlier work
[8] = pH 6.5, 29° C., IL-1ra 140 mg/ml

T2 sequence (P18510 with tags, fused parts or gaps): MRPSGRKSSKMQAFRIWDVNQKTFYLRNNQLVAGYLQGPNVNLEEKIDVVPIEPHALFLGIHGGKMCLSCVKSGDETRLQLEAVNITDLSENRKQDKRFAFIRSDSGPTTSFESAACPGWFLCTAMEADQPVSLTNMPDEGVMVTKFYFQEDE
T1 sequence (P18510 with tags, fused parts or gaps): as above

reduction in the rate of aggregation of IL-1ra [1, 8]: ~90%
predicted negative charges [2]: three negative charges
Kd ([3]; phosphate competition experiment, data not shown): 5 mM
Kd ([3]; pyrophosphate competition experiment): 3.89 mM
Kd [4]: 3.85 mM
number of binding sites on IL-1ra (x-intercept of Scatchard plot) ([4]; pH 6.5, 70 mM NaCl): 0.94
rate of derivatization of IL-1ra with MAP compared with phosphate buffer [5]: slower
rate of derivatization of IL-1ra with MAP in 20 mM compared with 10 mM buffer [5]: slower
Compound: O=C(O)CC(O)(CC(=O)O)C(=O)O [citrate]

reduction in the rate of aggregation of IL-1ra [1, 8]: ~20%
predicted negative charges [2]: predominantly one negative charge
Kd [6]: 12.6 mM
level of derivatization with MAP at all positions except the N-terminal amine, compared with citrate or pyrophosphate ([5]; 10 mM buffer, 270 minutes, 37° C.): greater
extent of derivatization of IL-1ra with MAP compared with citrate ([5]; 10 mM buffer, pH 6.3, 6.5 or 6.7, 5.5 hours): greater extent
Compound: phosphate

rate of derivatization of IL-1ra with MAP (slope of integrated area of deconvoluted peak 4 versus incubation time) ([5]; 10 mM citrate, pH 6.5, 37° C., time points 0-180 minutes): 68.931 h⁻¹
Compound: IL-1ra: Purified human recombinant interleukin-1 receptor antagonist having the amino acid sequence of SEQ ID NO: 5 (anakinra)

Compound: O=P(O)(O)OP(=O)(O)O [pyrophosphate]
reduction in the rate of aggregation of IL-1ra [1, 8]: ~90%
rate of aggregation of IL-1ra with increasing anion concentration, compared with phosphate buffer ([1]; 1 to 125 mM, 29° C.): decreased more rapidly
concentration at which the reduction in the rate of aggregation leveled off [1, 8]: 20 mM
predicted negative charges [2]: between two and three negative charges
competing with citrate for the citrate binding site on IL-1ra, compared with phosphate ([6]; 0-20 mM competing anion, 10 mM citrate): more effective
Kd [6]: 2.99 mM
estimated pKa, first ionizable hydrogen [7]: 0.83
estimated pKa, fourth ionizable hydrogen [7]: 9.46
estimated pKa, second ionizable hydrogen [7]: 2.26
estimated pKa, third ionizable hydrogen [7]: 6.72
rate of derivatization of IL-1ra with MAP compared with phosphate buffer [5]: slower
rate of derivatization of IL-1ra with MAP in 20 mM compared with 10 mM buffer [5]: slower
